Measurements from patent publication US6875578B2, “System for cell-based screening” (priority 1997, dated 2005).

Legend:
BHK cells = assay: Apoptosis actin reorganization (f-actin content), BHK cells; assay type: cell-based; conditions: 30 hours
Description: Cells were plated in 96-well plates at densities of 3×10^3 to 1×10^4 cells/well. The following day apoptotic inducers were added at indicated concentrations. Cells were incubated for the indicated time periods (usually 16-30 hours). The next day the medium was removed and cells were stained with 5 μg/ml Hoechst (Molecular Probes, Inc.) in fresh medium and incubated for 30 minutes at […]. Cells were washed in HBSS and fixed with 3.7% formaldehyde in HBSS at room temperature. Plates were washed with HBSS and permeabilized with 0.5% v/v Triton X-100 in HBSS at room temperature. Plates were washed in HBSS and stained with 100 μl of 1 U/ml of Alexa 488 Phalloidin stock (100 μl/well, Molecular Probes, Inc.). Cells were washed 2×with HBSS at RT and the plate was sealed.
Quantitation of f-actin content was accomplished by measuring the intensity of phalloidin staining around the nucleus. This was determined to be a reasonable approximation of a full cytoplasmic average of the intensity. The mask used to approximate this cytoplasmic measure was derived from the nuclear mask defined by the Hoechst stain. Derivation was accomplished by combinations of erosions and dilations.

L929 cells = assay: Apoptosis mitochondrial mass/potential, L929 cells; assay type: cell-based, mouse; conditions: 30 hours
Description: Cells were plated into 96-well plates at densities of 3×10^3 to 1×10^4 cells/well. The following day apoptotic inducers were added at the indicated concentrations and cells were incubated for the indicated time periods (usually 16-30 hours). Cells were stained with 5 μg/ml Hoechst (Molecular Probes, Inc.) and 750 nM MITOTRACKER™ Red (CMXRos, Molecular Probes, Inc.) in fresh medium and incubated for 30 minutes at 37° C. Cells were washed in HBSS and fixed with 3.7% formaldehyde in HBSS at room temperature. Plates were washed with HBSS and permeabilized with 0.5% v/v TRITON™ X-100 in HBSS at room temperature. Cells were washed 2× with HBSS at room temperature and the plate was sealed. For dual labeling of mitochondria, cells were treated with 200 nM MITOTRACKER™ Green and 200 nM MITOTRACKER™ Red for 0.5 hours before fixation.
The mitochondrial membrane potential is measured by labeling mitochondria with both MITOTRACKER™ Green FM and MITOTRACKER™ Red (Molecular Probes, mc). MITOTRACKER™ Red labeling is proportional to both mass and membrane potential. MITOTRACKER™ Green FM labeling is proportional to mass. The ratio of MITOTRACKER™ Red signal to the MITOTRACKER™ Green FM signal provides a measure of mitochondrial membrane potential (Poot and Pierce, 1999). This ratio normalizes the […]. […]

caspase-3 = assay: Caspase-3 biosensor apoptosis assay, BHK cells; assay type: cell-based; conditions: BHK cells transfected with the caspase 3 biosensor
Description: For DNA transfection, BHK cells and MCF-7 cells were cultured to 50-70% confluence in 6 well plates containing 3 ml of minimal Eagle's medium (MEM) with 10% fetal calf serum, 1 mM L-glutamine, 50 μg/ml streptomycin, 50 μg/ml penicillin, 0.1 mM non-essential amino acids, 1 mM sodium pyruvate and 10 μg/ml of bovine insulin (for MCF-7 cell only) at 37° C. in a 5% CO2 incubator for about 36 hours. The cells were washed with serum free MEM media and incubated for 5 hours with 1 ml of transfection mixture containing 1 μg of the appropriate plasmid and 4 μg of lipofectimine (BRL) in the serum free MEM media. Subsequently, the transfection medium was removed and replaced with 3 ml of normal culture media. The transfected cells were maintained in growth medium for at least 16 hours before performing selection of the stable cells based on standard molecular biology methods (Ausubel. et al 1995).
For apoptosis assays, the cells (BHK, MCF-7) stably transfected with the appropriate protease biosensor expression vector were plated on tissue culture treated 96-well plates at 50-60% confluence and cultured overnight at 37° C., 5% CO2. […]
The biosensor response is measured by quantitating the effective cytoplasm-to-nuclear translocation of the signal (see above). […]

CC(=O)O[C@H]1C(=O)[C@@]2(C)[C@H]([C@H](OC(=O)c3ccccc3)[C@]3(O)C[C@H](OC(=O)[C@H](O)[C@@H](NC(=O)c4ccccc4)c4ccccc4)C(C)=C1C3(C)C)[C@]1(OC(C)=O)CO[C@@H]1C[C@@H]2O [paclitaxel]
change in peri-nuclear f-actin content (BHK cells): results that are more variable | change in peri-nuclear f-actin content (BHK cells; listed as Paclitaxel): highly variable | mitochondrial changes (mass / membrane potential) (L929 cells): consistent increases in mitochondrial mass | caspase activation reported by the biosensor (caspase-3): stimulated
